Like-named read-outs stand apart in the source and are kept apart here.
How the values were obtained:
[1] = test system: greenhouse red spider mite (Tetranychus urticae); test: Tetranychus urticae spray test, OP-resistant (TETRUR), bean leaf disks; type: in vivo; settings: for pest or weed control at 500 g/ha: Tetranychus urticae, foliar, 144 h, read-out: efficacy in %
Protocol: Tetranychus urticae—Spray Test, OP-Resistant (TETRUR)
Solvent: 78.0 parts by weight of acetone
• 1.5 parts by weight of dimethylformamide Emulsifier: alkylaryl polyglycol ether
To produce a suitable preparation of active compound, 1 part by weight of active compound is dissolved using the stated parts by weight of solvent and made up with water containing an emulsifier concentration of 1000 ppm until the desired concentration is attained. To produce further test concentrations, the preparation is diluted with emulsifier-containing water.
disks of bean leaves (Phaseolus vulgaris) infested with all stages of the greenhouse red spider mite (Tetranychus urticae) are sprayed with an active compound preparation of the desired concentration.
After 6 days, the efficacy in % is determined. 100% means that all the spider mites have been killed; 0% means that none of the spider mites have been killed.

[2] = log P determination by HPLC on reversed-phase columns (C 18), analogously to OECD Guideline 117; type: physicochemical; settings: for logP (HCOOH): LC-MS in the acidic range, pH 2.7, 0.1% aqueous formic acid / acetonitrile; for logP (HCOOH) / logP (neutral): HPLC reversed-phase C 18; for logP (neutral): LC-MS in the neutral range, pH 7.8, 0.001 molar aqueous ammonium hydrogencarbonate / acetonitrile
Protocol: The log P values were determined analogously to OECD Guideline 117 (EC Directive 92/69/EEC) by HPLC (high-performance liquid chromatography) using reversed-phase columns (C 18), by the following methods:
[a] The LC-MS determination in the acidic range was effected at pH 2.7 with 0.1% aqueous formic acid and acetonitrile (contains 0.1% formic acid) as eluents; linear gradient from 10% acetonitrile to 95% acetonitrile. log P^[a] is also referred to as log P(HCOOH). [b] LC-MS determination in the neutral range was effected at pH 7.8 with 0.001 molar aqueous ammonium hydrogencarbonate solution and acetonitrile as eluents; linear gradient from 10% acetonitrile to 95% acetonitrile. log P^[…] is also referred to as log P(neutral).

[3] = bean leaf disks, application rate 500 g/ha, after 6 days
[4] = reversed-phase C18 HPLC column, acidic range, pH 2.7, 0.1% aqueous formic acid and acetonitrile, read-out: log P[a] / log P(HCOOH)
[5] = reversed-phase C18 HPLC column, neutral range, pH 7.8, 0.001 molar aqueous ammonium hydrogencarbonate and acetonitrile, read-out: log P[b] / log P(neutral)

chromatographic logP [2, 4]	chromatographic logP [2, 5]	SMILES	also measured
–	–	Cc1cc(F)c(N2C(=O)CSC2=NCC(C)(C)C)cc1[S+]([O-])CC(F)(F)F (racemic) [Example 114]	efficacy in % [1, 3]: 90%; logP (HCOOH) [2]: 3.66; logP (neutral) [2]: 3.63
–	–	C=CCn1c(=O)n(-c2cc([S+]([O-])CC(F)(F)F)c(C)cc2F)c(=O)n1CC=C (racemic) [Example 120]	efficacy in % [1, 3]: 90%; logP (HCOOH) [2]: 2.46
–	–	C#CCn1c(=O)n(-c2cc([S+]([O-])CC(F)(F)F)c(C)cc2F)c(=O)n1C (racemic) [Example 123]	efficacy in % [1, 3]: 100%; logP (HCOOH) [2]: 1.96
–	–	C=CCn1c(=O)n(-c2cc([S+]([O-])CC(F)(F)F)c(C)cc2F)c(=O)n1C (racemic) [Example 124]	efficacy in % [1, 3]: 100%; logP (HCOOH) [2]: 2.00
–	–	Cc1cc(F)c(N2CCN(C)C2=O)cc1[S+]([O-])CC(F)(F)F (racemic) [Example 199]	efficacy in % [1, 3]: 100%; logP (HCOOH) [2]: 1.76; logP (neutral) [2]: 1.74
–	–	C=CCN1CC(=O)N(c2cc([S+]([O-])CC(F)(F)F)c(C)cc2F)C1=O (racemic) [Example 201]	efficacy in % [1, 3]: 100%; logP (HCOOH) [2]: 2.02; logP (neutral) [2]: 1.99
–	–	Cc1cc(F)c(-n2c(=O)n(C3CC3)c(=O)n2C)cc1[S+]([O-])CC(F)(F)F (single isomer, unassigned) [Example 151]	efficacy in % [1, 3]: 90%; logP (HCOOH) [2]: 1.98; logP (neutral) [2]: 1.88
1.02	2.88	Cc1cc(F)c(N2CCCC2=NCC(F)(F)F)cc1[S+]([O-])CC(F)(F)F (centres unmarked) [Example 3, 2,2,2-Trifluoro-N-(1-{2-fluoro-4-methyl-5-[(2,2,2-trifluoroethyl)sulfinyl]phenyl}pyrrolidin-2-ylidene)ethanamine]	pest or weed control at 500 g/ha [1, 3]: 90%
1.68	4.24	Cc1cc(F)c(N2CCCC2=NCC(F)(F)F)cc1SCC(F)(F)F [Example 6, 2,2,2-Trifluoro-N-(1-[2-fluoro-4-methyl-5-[(2,2,2-trifluoroethyl)sulfanyl]phenyl]pyrrolidin-2-ylidene)ethanamine]	pest or weed control at 500 g/ha [1, 3]: 90%
2.61	2.52	OB(O)c1cc(SCC(F)(F)F)c(Cl)cc1Cl [VIIIa-6, {2,4-Dichloro-5-[(2,2,2-trifluoroethyl)sulfanyl]phenyl}boronic acid]	–
1.94	1.93	COc1ccc(B(O)O)cc1SCC(F)(F)F [VIIIa-8, {4-Methoxy-3-[(2,2,2-trifluoroethyl)sulfanyl]phenyl}boronic acid]	–
2.58	2.57	Cc1cc(C)c(B(O)O)cc1SCC(F)(F)F [VIIIa-11, {2,4-Dimethyl-5-[(2,2,2-trifluoroethyl)sulfanyl]phenyl}boronic acid]	–
1.74	1.68	[O-][S+](CC(F)(F)F)c1cc(B(O)O)ccc1Cl (centres unmarked) [VIIIb-3, {4-Chloro-3-[(2,2,2-trifluoroethyl)sulfinyl]phenyl}boronic acid]	–
1.86	1.51	[O-][S+](CC(F)(F)F)c1cc(B(O)O)c(Cl)cc1Cl (centres unmarked) [VIIIb-6, {2,4-Dichloro-5-[(2,2,2-trifluoroethyl)sulfinyl]phenyl}boronic acid]	–
1.36	1.37	COc1ccc(B(O)O)cc1[S+]([O-])CC(F)(F)F (centres unmarked) [VIIIb-8]	–
1.61	1.61	Cc1cc(C)c([S+]([O-])CC(F)(F)F)cc1B(O)O (centres unmarked) [VIIIb-11, {2,4-Dimethyl-5-[(2,2,2-trifluoroethyl)sulfinyl]phenyl}boronic acid]	–
4.28	4.29	Fc1cc(Cl)c(SCC(F)(F)F)cc1Br [VIIa-2, 1-Bromo-4-chloro-2-fluoro-5-[(2,2,2-trifluoroethyl)sulfanyl]benzene]	–
4.29	4.25	FC(F)(F)CSc1cc(Br)ccc1Br [VIIa-13, 1,4-Dibromo-2-[(2,2,2-trifluoroethyl)sulfanyl]benzene]	–

chromatographic logP [2, 4]	chromatographic logP [2, 5]	SMILES	also measured
4.39	4.36	Fc1cc(Br)c(SCC(F)(F)F)cc1Br [VIIa-14, 1,4-Dibromo-2-fluoro-5-[(2,2,2-trifluoroethyl)sulfanyl]benzene]	–
3.89	3.86	Fc1cc(F)c(SCC(F)(F)F)cc1Br [VIIa-15, 1-Bromo-2,4-difluoro-5-[(2,2,2-trifluoroethyl)sulfanyl]benzene]	–
–	–	O=[N+]([O-])c1ccc(Cl)c(SSc2cc([N+](=O)[O-])ccc2Cl)c1 [XIX-3, 1,1′-Disulfanediylbis(2-chloro-5-nitrobenzene)]	chromatographic logP ([2]; acidic range, pH 2.7, 0.1% aqueous formic acid and acetonitrile, read-out: log P[a] / log P(HCOOH)): 3.31; chromatographic logP ([2]; neutral range, pH 7.8, 0.001 molar aqueous ammonium hydrogencarbonate and acetonitrile, read-out: log P[b] / log P(neutral)): 3.35
1.15	–	CCn1[nH]c(=O)n(C(C)(C)C)c1=O [drawing 120 R1=CH2CH3 R10=C(CH3)3, 4-tert-butyl-1-ethyl-1,2,4-triazolidine-3,5-dione]	–
0.62	–	CCn1[nH]c(=O)n(C(C)C)c1=O [drawing 120 R1=CH2CH3 R10=CH(CH3)2, 1-ethyl-4-isopropyl-1,2,4-triazolidine-3,5-dione]	–
0.94	–	CC(C)Cn1[nH]c(=O)n(C2CC2)c1=O [drawing 120 R1=CH2CH(CH3)2 R10=cyclopropyl, 4-cyclopropyl-1-isobutyl-1,2,4-triazolidine-3,5-dione]	–
0.83	–	Cn1[nH]c(=O)n(C(C)(C)C)c1=O [drawing 120 R1=CH3 R10=C(CH3)3, 4-tert-butyl-1-methyl-1,2,4-triazolidine-3,5-dione]	–
0.27	–	CC(C)n1c(=O)[nH]n(C)c1=O [drawing 120 R1=CH3 R10=CH(CH3)2, 4-isopropyl-1-methyl-1,2,4-triazolidine-3,5-dione]	–
0.12	–	CC(C)n1[nH]c(=O)n(C)c1=O [drawing 120 R1=CH(CH3)2 R10=CH3, 1-isopropyl-4-methyl-1,2,4-triazolidine-3,5-dione]	–
0.5	–	CC(C)n1[nH]c(=O)n(C2CC2)c1=O [drawing 120 R1=CH(CH3)2 R10=cyclopropyl, 4-cyclopropyl-1-isopropyl-1,2,4-triazolidine-3,5-dione]	–
0.82	–	CCC(C)n1[nH]c(=O)n(C2CC2)c1=O (centres unmarked) [drawing 120 R1=CH(CH3)CH2CH3 R10=cyclopropyl, 1-sec-butyl-4-cyclopropyl-1,2,4-triazolidine-3,5-dione]	–
1.21	–	O=c1[nH]n(Cc2ccccc2)c(=O)n1C1CC1 [drawing 120 R1=benzyl R10=cyclopropyl, 1-benzyl-4-cyclopropyl-1,2,4-triazolidine-3,5-dione]	–
0.78	–	Cn1c(=O)[nH]n(C2CCCC2)c1=O [drawing 120 R1=cyclopentyl R10=CH3, 1-cyclopentyl-4-methyl-1,2,4-triazolidine-3,5-dione]	–
1.66	1.63	Cn1c(OCc2ccccc2Cl)n[nH]c1=O [drawing 121 R1=2-chlorobenzyl R10=CH3, 5-[(2-chlorobenzyl)oxy]-4-methyl-2,4-dihydro-3H-1,2,4-triazol-3-one]	–
0.84	0.88	Cn1c(OCC2CC2)n[nH]c1=O [drawing 121 R1=CH2-cyclopropyl R10=CH3, 5-(cyclopropylmethoxy)-4-methyl-2,4-dihydro-3H-1,2,4-triazol-3-one]	–
1	1.03	C=CCOc1n[nH]c(=O)n1C1CC1 [drawing 121 R1=CH2CH═CH2 R10=cyclopropyl, 5-(allyloxy)-4-cyclopropyl-2,4-dihydro-3H-1,2,4-triazol-3-one]	–
0.45	0.47	C=CCn1c(OC)n[nH]c1=O [drawing 121 R1=CH3 R10=CH2CH═CH2, 4-allyl-5-methoxy-2,4-dihydro-3H-1,2,4-triazol-3-one]	–
0.27	0.31	COc1n[nH]c(=O)n1C1CC1 [drawing 121 R1=CH3 R10=cyclopropyl, 4-cyclopropyl-5-methoxy-2,4-dihydro-3H-1,2,4-triazol-3-one]	–

SMILES	chromatographic logP [2, 4]	chromatographic logP [2, 5]	also measured
Cc1cc(C)c(N2CCNC2=O)cc1SCC(F)(F)F [Example 1, 1-{2,4-Dimethyl-5-[(2,2,2-trifluoroethyl)sulfanyl]phenyl}imidazolidin-2-one]	2.43	2.39	pest or weed control at 500 g/ha [1]: 90%

— patent US9981928B2, “Aryl sulfide derivatives and aryl sulfoxide derivatives as acaricides and insecticides” (BAYER CROPSCIENCE AKTIENGESELLSCHAFT, priority 2013, dated 2018)
